Test results from patent US9637484B2, “Cycloalkyl acid derivative, preparation method thereof, and pharmaceutical application thereof” (Shanghai Hengrui Pharmaceutical Co., Ltd., priority 2013, dated 2017).
Values belong to the molecule of their own block, whether it stands above or below them.

Key:
hURAT1 = hURAT1 (Homo sapiens (Human), UniProt Q96S37); assay: Assay for inhibiting URAT1: uptake of 14C-uric acid in HEK293/hURAT1 cells; type: cell-based; settings: 14C-uric acid 11.57 μM, 12 minutes at room temperature
Description: In vitro URAT1 assay can be used to identify compounds having potential activity for decreasing serum uric acid. In a suitable test, the vectors that encode human URAT1 (URAT1 cDNA: Guangzhou Copoeia EX-T4563-M02) were used to transfect cells (human embryonic kidney cells, HEK293: Cell Bank of the Chinese Academy of Sciences, GNHu18). The transfected cells—HEK293/hURAT1 cells—were obtained, then their uptake ability of radiolabeled uric acid was determined. The activity of the compounds as URAT1 inhibitors can be evaluated by the ability of the compounds to block the uptake of uric acid in the transfected cells.
The HEK293/hURAT1 cells in Eagle's minimal essential medium (EMEM) were inoculated in a 48-well plate that was coated with poly-D-lysine (Becton Dickinson, Catalog No. 356509), with an inoculation density of 10^5 cells/well, and incubated overnight. A reaction solution containing ^14C— uric acid (American Radioactive Compound, Catalog No. ARC 0513A) with a final concentration of 11.57 μM was prepared by the use or non-use of the test compounds in Hanks balanced salt solution (HBSS). The Hanks balanced salt solution (HBSS) contained 125 mM sodium gluconate, 4.8 mM potassium gluconate, 1.2 mM potassium dihydrogen phosphate, 1.2 mM magnesium sulfate, 1.3 mM calcium gluconate, 5.6 mM glucose and 25 mM HEPES (pH 7.3). After the medium was washed with the wash buffer (125 mM sodium gluconate, 10 mM HEPES, pH 7.3) for one time, the reaction solution prepared from the above step was added to each well and incubated at room temperature for 12 minutes. Then the reaction solution was removed, the cells were washed twice with the wash buffer and lysed with 0.2 M NaOH for 5 minutes. The cell lysate was transferred to a 96-well culture plate with a scintillation fluid (PerkinElmer, Catalog No. 1450-401), and counting of radioactivity was carried out on a Microbeta counter (PerkinElmer).
The test compounds were dissolved in DMSO, then DMSO with the same concentration was added to HEK293/hURAT1 cell wells without the test compounds. Cellular uptake of uric acid under various test conditions was expressed as average percentage inhibition rates in comparison to DMSO control. Radioactive values from the wells containing DMSO were considered as 100% uptake of the cells. IC50 values were calculated from the data of the inhibition rates at various concentrations.
The above assay was used to determine the biochemical activity of the compounds of the present invention for inhibiting hURAT1.

[1] = Pharmacokinetics assay in SD rats, intragastric administration, plasma by LC/MS/MS; type: in vivo, Sprague-Dawley (SD) rats; settings: 3.0 mg/kg; for Vd/F / AUC / CL/F / half-life / Cmax / MRT: both sexes, Sprague-Dawley, rat, plasma, po; for Vd/F: read-out: Apparent Distribution Volume Vz/F; for AUC: read-out: Area Under Curve AUC; for CL/F: read-out: Clearance CL/F; for half-life: read-out: Half-Life T½ (converted); for Cmax: read-out: Plasma Conc. Cmax; for MRT: read-out: Mean Residence Time MRT
Description: Sprague-Dawley (SD) rats were used as test animals. The compounds of Example 1, Example 2 and Example 3 were administered intragastrically to rats to determine the drug concentration in plasma at different time points by a LC/MS/MS method. The pharmacokinetic behavior of the compounds of the present invention was studied and evaluated in rats.
12 Healthy adult SD rats, half male and half female, purchased from SINO-BRITSH SIPPR/BK LAB. ANIMAL LTD., CO, Certificate No.: SCXK (Shanghai) 2008-0016, were divided into three groups, with 4 rats in each group.
The appropriate amounts of test compounds were weighed and mixed with 0.5% CMC-Na to prepare a 0.3 mg/mL suspension by an ultrasonic method.
After an overnight fast, 12 SD rats, half male and half female, were divided into 3 groups, with 4 rats in each group, and administered the compounds intragastrically at a dose of 3.0 mg/kg and an administration volume of 10 mL/kg.
Blood samples (0.1 mL) were taken from the orbital sinus before administration, and at 0.5 h, 1 h, 2 h, 4 h, 6 h, 8 h, 11 h, 24 h and 48 h after administration, stored in heparinized tubes, and centrifuged for 10 minutes at 3,500 rpm to separate blood plasma. The plasma samples were stored at −20° C.
The concentration of the test compounds in rat plasma after intragastrically administering the test compounds was analyzed by a LC-MS/MS method. The linearity range of the method is 2.0-5000 ng/ml, and the lower limit of quantification is 2.00 ng/ml. Plasma samples were analyzed after protein precipitation.

Sequence of hURAT1 (Q96S37 whole entry): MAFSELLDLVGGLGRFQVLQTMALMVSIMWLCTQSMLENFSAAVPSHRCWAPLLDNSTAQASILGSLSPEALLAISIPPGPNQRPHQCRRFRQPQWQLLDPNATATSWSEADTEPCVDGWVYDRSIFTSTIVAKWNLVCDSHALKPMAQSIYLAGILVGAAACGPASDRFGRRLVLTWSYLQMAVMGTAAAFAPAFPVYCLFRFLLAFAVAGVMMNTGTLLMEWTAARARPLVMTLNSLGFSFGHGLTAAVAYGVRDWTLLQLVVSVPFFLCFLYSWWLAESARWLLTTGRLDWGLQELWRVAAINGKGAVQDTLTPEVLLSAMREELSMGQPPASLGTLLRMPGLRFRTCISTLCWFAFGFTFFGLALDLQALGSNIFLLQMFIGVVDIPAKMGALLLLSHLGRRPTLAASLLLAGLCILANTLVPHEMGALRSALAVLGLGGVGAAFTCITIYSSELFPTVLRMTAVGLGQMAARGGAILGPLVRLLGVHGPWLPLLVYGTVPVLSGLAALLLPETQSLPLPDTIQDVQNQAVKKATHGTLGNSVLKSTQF

Compound: O=C(O)C1(Sc2ccnc3ccc(C(F)(F)F)cc23)CCC1 [Example 2, 1-((6-(trifluoromethyl)quinolin-4-yl)thio)cyclobutanecarboxylic acid]
IC50 (hURAT1): 61 nM
Mean Residence Time MRT [1]: 12.9 ± 5.8 h
Vd/F [1]: 1.21 ± 0.674 L/kg
AUC [1]: 38200 ± 25100 ng·h/mL
CL/F [1]: 1.95 ± 1.31 mL/min/kg
half-life [1]: 8.83 ± 4.04 h
Cmax [1]: 2710 ± 919 ng/mL

Compound: O=C(O)C1(Sc2ccnc3cc(Br)ccc23)CCC1 [Example 31, 1-((7-bromoquinolin-4-yl)thio)cyclobutanecarboxylic acid]
IC50 (hURAT1): 129 nM

Compound: O=C(O)C1(Sc2ccnc3ccc(Br)cc23)CCCC1 [Example 32, 1-((6-bromoquinolin-4-yl)thio)cyclopentanecarboxylic acid]
IC50 (hURAT1): 352 nM

Compound: O=C(O)C1(Sc2ccnc3ccc(-c4cccc(F)c4)cc23)CCC1 [Example 6, 1-((6-(3-fluorophenyl)quinolin-4-yl)thio)cyclobutanecarboxylic acid]
IC50 (hURAT1): 332 nM

Compound: O=C(O)C1(Sc2ccnc3ccccc23)CCC1 [Example 1, 1-(quinolin-4-ylthio)cyclobutanecarboxylic acid]
IC50 (hURAT1): 251 nM
Vd/F [1]: 0.652 ± 0.333 L/kg
AUC [1]: 20700 ± 5270 ng·h/mL
CL/F [1]: 2.54 ± 0.68 mL/min/kg
half-life [1]: 2.84 ± 0.65 h
MRT [1]: 3.15 ± 0.82 h
Cmax [1]: 8800 ± 1760 ng/mL

Compound: O=C(O)C1(Sc2ccnc3ccc(Br)cc23)CC1 [Example 33, 1-((6-bromoquinolin-4-yl)thio)cyclopropanecarboxylic acid]
IC50 (hURAT1): 324 nM

Compound: O=C(O)C1(Sc2ccnc3ccc(C4CC4)cc23)CCC1 [Example 23, 1-((6-cyclopropylquinolin-4-yl)thio)cyclobutanecarboxylic acid]
IC50 (hURAT1): 658 nM

Compound: O=C(O)C1(Sc2ccnc3ccc(-c4cccc(C(F)(F)F)c4)cc23)CCC1 [Example 8, 1-((6-(3-(trifluoromethyl)phenyl)quinolin-4-yl)thio)cyclobutanecarboxylic acid]
IC50 (hURAT1): 359 nM

Compound: O=C(O)C1(Sc2ccnc3ccc(-c4ccc(F)cc4)cc23)CCC1 [Example 7, 1-((6-(4-fluorophenyl)quinolin-4-yl)thio)cyclobutanecarboxylic acid]
IC50 (hURAT1): 159 nM

Compound: N#Cc1ccc(SC2(C(=O)O)CCC2)c2ccccc12 [Example 10, 1-((4-cyanonaphthalen-1-yl)thio)cyclobutanecarboxylic acid]
IC50 (hURAT1): 926 nM

Compound: O=C(O)C1(Sc2ccnc3ccc(-c4ccccc4C(F)(F)F)cc23)CCC1 [Example 22, 1-((6-(2-(trifluoromethyl)phenyl)quinolin-4-yl)thio)cyclobutanecarboxylic acid]
IC50 (hURAT1): 115 nM

More lines, now with the values ahead:

IC50 (hURAT1): 207 nM
Compound: COCCOc1ccc2nccc(SC3(C(=O)O)CCC3)c2c1 [Example 5, 1-((6-(2-methoxyethoxy)quinolin-4-yl)thio)cyclobutanecarboxylic acid]

IC50 (hURAT1): 343 nM
Compound: Cc1ccc2nccc(SC3(C(=O)O)CCC3)c2c1 [Example 30, 1-((6-methylquinolin-4-yl)thio)cyclobutanecarboxylic acid]

IC50 (hURAT1): 19 nM
Vd/F [1]: 0.878 ± 0.335 L/kg
AUC [1]: 28400 ± 8540 ng·h/mL
CL/F [1]: 1.89 ± 0.59 mL/min/kg
half-life [1]: 5.35 ± 1.12 h
MRT [1]: 8.15 ± 1.3 h
Cmax [1]: 3470 ± 854 ng/mL
Compound: O=C(O)C1(Sc2ccnc3ccc(Br)cc23)CCC1 [Example 3, 1-((6-bromoquinolin-4-yl)thio)cyclobutanecarboxylic acid]

IC50 (hURAT1): 197 nM
Compound: COCc1ccc2nccc(SC3(C(=O)O)CCC3)c2c1 [Example 9, 1-((6-(methoxymethyl)quinolin-4-yl)thio)cyclobutanecarboxylic acid]

IC50 (hURAT1): 398 nM
Compound: N#Cc1ccc2nccc(SC3(C(=O)O)CCC3)c2c1 [Example 17, 1-((6-cyanoquinolin-4-yl)thio)cyclobutanecarboxylic acid]

IC50 (hURAT1): 680 nM
Compound: N#CCOc1ccc2nccc(SC3(C(=O)O)CCC3)c2c1 [Example 24, 1-((6-(cyanomethoxy)quinolin-4-yl)thio)cyclobutanecarboxylic acid]

IC50 (hURAT1): 164 nM
Compound: COC(=O)COc1ccc2nccc(SC3(C(=O)O)CCC3)c2c1 [Example 13, 1-((6-(2-methoxy-2-oxoethoxy)quinolin-4-yl)thio)cyclobutanecarboxylic acid]

IC50 (hURAT1): 557 nM
Compound: O=C(O)C1(Sc2ccnc3ccc(F)cc23)CCC1 [Example 12, 1-((6-fluoroquinolin-4-yl)thio)cyclobutanecarboxylic acid]

IC50 (hURAT1): 343 nM
Compound: COc1ccc2nccc(SC3(C(=O)O)CCC3)c2c1 [Example 4, 1-((6-methoxyquinolin-4-yl)thio)cyclobutanecarboxylic acid]
